Results from PubChem BioAssay (NCI).
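Five compound concentrations were applied to cells in 96-well plates for 48 hours; endpoints were derived by simple linear interpolation of the resulting dose-response curve. TGI: total growth inhibition.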 Where a SMILES comes first, the peptide text is derived from it. The star is where a group is joined. Boc = CC(C)(C)OC(=O)*; OBn = c1ccc(CO*)cc1

What was measured:
Assay in all cases: inhibition of tumour cell growth, NCI panel, 48 h
SK-MEL-2 melanoma = test system: SK-MEL-2 melanoma
TK-10 renal = test system: TK-10 renal
786-0 renal = test system: 786-0 renal
COLO 205 colon = test system: COLO 205 colon
SK-OV-3 ovarian = test system: SK-OV-3 ovarian
CAKI-1 renal = test system: CAKI-1 renal
NCI-H522 lung = test system: NCI-H522 lung
OVCAR-3 ovarian = test system: OVCAR-3 ovarian
HCC-2998 colon = test system: HCC-2998 colon
SF-539 CNS = test system: SF-539 CNS
HOP-62 NSCLC = test system: HOP-62 NSCLC
SNB-19 CNS = test system: SNB-19 CNS
T-47D breast = test system: T-47D breast
RPMI-8226 leukemia = test system: RPMI-8226 leukemia
HCT-15 colon = test system: HCT-15 colon
LOX IMVI melanoma = test system: LOX IMVI melanoma
DU-145 prostate = test system: DU-145 prostate
BT-549 breast = test system: BT-549 breast
SR leukemia = test system: SR leukemia
HS 578T breast = test system: HS 578T breast

Compound | TGI (SK-MEL-2 melanoma) | TGI (TK-10 renal) | TGI (786-0 renal) | TGI (COLO 205 colon) | TGI (SK-OV-3 ovarian) | TGI (CAKI-1 renal) | TGI (NCI-H522 lung) | TGI (OVCAR-3 ovarian) | TGI (HCC-2998 colon) | TGI (SF-539 CNS) | TGI (HOP-62 NSCLC) | TGI (SNB-19 CNS) | TGI (T-47D breast) | TGI (RPMI-8226 leukemia) | TGI (HCT-15 colon) | TGI (LOX IMVI melanoma) | TGI (DU-145 prostate) | TGI (BT-549 breast) | TGI (SR leukemia) | TGI (HS 578T breast)
CC(C)C(NC(=O)C(Cc1ccccc1)NC(=O)OC(C)(C)C)C(=O)NCC(=O)OCc1ccccc1 (stereo not drawn) (Boc-Phe-Val-Gly-OBn; configuration not given here) | 32 µM | 27.1 µM | 32.1 µM | 35.5 µM | 28 µM | 33.7 µM | 20.1 µM | 27.9 µM | 31.9 µM | 43.3 µM | 35.6 µM | 58.4 µM | 36.7 µM | 42.5 µM | 26.7 µM | 30.2 µM | 28.7 µM |  |  | 
O=C1CC(CC(O)[C@@H]2CCCC[C@@H]2O)CC(=O)N1c1ccccc1 (some centres undefined) |  | > 100 µM | > 100 µM |  |  | > 100 µM | > 100 µM | > 100 µM | > 100 µM | > 100 µM | > 100 µM | > 100 µM |  | > 100 µM | > 100 µM | > 100 µM | > 100 µM | > 100 µM | > 100 µM | > 100 µM
COc1cc(OCc2ccc3nc(-c4ccccc4)c(Cl)nc3c2)cc(OC)c1OC | > 100 µM | > 100 µM | > 100 µM | > 100 µM |  | > 100 µM | > 100 µM | > 100 µM | > 100 µM | > 100 µM | > 100 µM | > 100 µM | > 100 µM | > 100 µM | > 100 µM | > 100 µM | > 100 µM |  | > 100 µM | > 100 µM
COCC(N=CN1CCCc2ccccc2[C@@H]1CCCCl)C(C)(C)C (some centres undefined) | 38.3 µM | 28.8 µM | 28.1 µM | 10.3 µM | 70.1 µM | 31.9 µM | 21.1 µM | 0.729 µM | 33.9 µM | 24.4 µM | 52.9 µM | 65.1 µM | 84.1 µM | 8.95 µM | > 100 µM | 24.2 µM | > 100 µM |  | 12.2 µM | 17.6 µM
CC[C@](O)(CC(=O)O[C@H]1C(=O)O[C@@H]2C[C@H]3C(C)=CC(=O)[C@@H](O)[C@]3(C)[C@H]3[C@@]4(O)OC[C@]32[C@@H]1[C@@H](C)[C@H]4O)C(C)C | < 0.01 µM | < 0.01 µM | < 0.01 µM | < 0.01 µM | < 0.01 µM | 0.0398 µM | < 0.01 µM | < 0.01 µM | < 0.01 µM | < 0.01 µM | < 0.01 µM | < 0.01 µM | < 0.01 µM |  | < 0.0117 µM | < 0.01 µM | < 0.01 µM |  | < 0.01 µM | < 0.01 µM
Cc1ccc2nc(CN3CCCC(O)C3)cc(=O)n2c1 (centres undefined) | > 100 µM | > 100 µM | > 100 µM | > 100 µM | > 100 µM | > 100 µM | > 100 µM | > 100 µM | > 100 µM | > 100 µM | > 100 µM | > 100 µM |  | > 100 µM | > 100 µM | > 100 µM | > 100 µM | > 100 µM | > 100 µM | > 100 µM
COc1cc(S(=O)(=O)Nc2nc(-c3ccc(N4C(=O)CSC4c4cccs4)cc3)cs2)ccc1Cl (centres undefined) | > 100 µM | > 100 µM | > 100 µM | > 100 µM | > 100 µM | > 100 µM | 83.2 µM | > 100 µM |  | > 100 µM | > 100 µM | > 100 µM | > 100 µM |  | 46.7 µM | 48.2 µM | > 100 µM |  | 96.8 µM | > 100 µM
O=C(O)c1ccc(P(=O)(O)c2ccc(C(=O)O)cc2Br)c(Br)c1 | > 100 µM | > 100 µM | > 100 µM | > 100 µM | > 100 µM | > 100 µM | > 100 µM | > 100 µM | > 100 µM | > 100 µM | > 100 µM | > 100 µM |  | > 100 µM | > 100 µM | > 100 µM | > 100 µM | > 100 µM |  | > 100 µM
COc1c2nc(CCl)[nH]c(=O)c2c(OC)c2nc(CCl)[nH]c(=O)c12 | > 100 µM | > 100 µM | > 100 µM | > 100 µM | > 100 µM | > 100 µM | > 100 µM | > 100 µM |  | > 100 µM | > 100 µM | > 100 µM |  | > 100 µM | > 100 µM | > 100 µM |  |  |  | 
C[C@]12C[C@H](c3ccccc3)Nc3ccccc3N1C(c1ccccc1)=NO2 | > 100 µM | > 100 µM | > 100 µM | > 100 µM | > 100 µM | > 100 µM | > 100 µM | > 100 µM | > 100 µM | > 100 µM | > 100 µM | > 100 µM |  | > 100 µM | > 100 µM |  | > 100 µM | > 100 µM | 26.6 µM | > 100 µM
